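A five-concentration, 48-hour dose response in 96-well plates underlies each endpoint, interpolated linearly between surrounding concentrations. Abbreviation: GI50, concentration required for 50% inhibition of growth.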 Activity calls are given as the source filed them. Cut-off read from the data, not from the text of the source: active = GI50 up to about 1.1 µM and inactive = higher. Non-standard residues stand in square brackets, D forms with d. Residues, ends and D or L forms follow the SMILES beside them. *: point of attachment. Bn2Val = CC(C)[C@@H](C(=O)*)N(Cc1ccccc1)Cc1ccccc1; NH(4-Cl-benzyl) = Clc1ccc(CN*)cc1; NMeF = CN[CH](Cc1ccccc1)C(=O)O; NMeV = CN[CH](C(=O)O)C(C)C; dNMeA = CN[C@H](C)C(=O)O; Boc = CC(C)(C)OC(=O)*
Tests used:
Experiment in all cases: growth of human tumour cells (NCI), 48 h
DLD-1 = system: DLD-1
DMS-114 = system: DMS-114
KM-20L2 = system: KM-20L2
M19-MEL = system: M19-MEL
RXF 631 = system: RXF 631
SNB-78 = system: SNB-78
BT-549 = system: BT-549
XF498 = system: XF498
HOP-18 = system: HOP-18

Measured: GI50

CCCCCCCCC/C=C1\CCC(CN(C)C)C1=O (configuration not stated)
inactive: DLD-1 2.06 µM | DMS-114 2.26 µM | KM-20L2 2.18 µM | M19-MEL 1.86 µM | RXF 631 2.07 µM | SNB-78 2.37 µM

CCN1C(NN)=NS(=O)(=O)c2ccccc21
inactive: BT-549 > 100 µM

O=C(O)C(CS)NCc1c2ccccc2nc2ccccc12 (configuration not stated)
inactive: DLD-1 24.4 µM | KM-20L2 41.6 µM | M19-MEL 34.9 µM | RXF 631 22.3 µM | XF498 15.5 µM

COc1cc2c(oc(=O)c3cc4ccoc4c(OC)c32)c2cccc(O)c12
inactive: DLD-1 > 100 µM | DMS-114 > 100 µM | HOP-18 > 100 µM | KM-20L2 > 100 µM | M19-MEL > 100 µM | SNB-78 > 100 µM | XF498 > 100 µM

COC(=O)N1CC[C@@H]2CCC=C(c3cccc4c3OCO4)[C@@H]21
inactive: BT-549 81.5 µM

CCOC(=O)Cc1ccc(Nc2nc3cc(C(F)(F)F)ccc3nc2C(=O)OCC)cc1
inactive: BT-549 77.1 µM

CCOC(=O)c1[nH]cc(C)c1-c1ccn(-c2ccccc2)c1
inactive: BT-549 43.4 µM

CN(C)C[C@H]1CC[C@@H](CN(C)C)C1=O
inactive: BT-549 7.46 µM | DLD-1 3.94 µM | DMS-114 8.47 µM | HOP-18 8.02 µM | KM-20L2 11.2 µM | M19-MEL 8.83 µM | SNB-78 10.3 µM | XF498 8.28 µM

CCCCOCCOCCOC1=CC(=O)c2c(O)ccc(O)c2C1=O
inactive: BT-549 1.77 µM

O=C(O)Cc1ccc(Oc2nc3ccccc3nc2-c2cccs2)cc1
inactive: BT-549 30.5 µM

O=C1c2ccccc2C(=O)c2[nH]c(Cc3ccccc3F)nc21
inactive: DLD-1 16.1 µM | DMS-114 33.7 µM | HOP-18 93.8 µM | KM-20L2 33.9 µM | XF498 53.1 µM

Oc1ccc(Cl)cc1/C=N/c1cnc2ccccc2c1
inactive: BT-549 22.3 µM

N#CCCN(CCCN(C(=O)N(c1ccccc1)c1ccccc1)c1ccccc1)C(=O)Nc1ccccc1
inactive: BT-549 > 100 µM

O=C(CC(=O)C1CCOC1=O)C(=O)Nc1cccc(Cl)c1 (configuration not stated)
inactive: DLD-1 > 100 µM | DMS-114 > 100 µM | HOP-18 > 100 µM | KM-20L2 > 100 µM | M19-MEL > 100 µM | RXF 631 > 100 µM | SNB-78 > 100 µM

O=C1CC(n2ccnc2)c2c(Cl)sc(Cl)c21 (configuration not stated)
inactive: BT-549 15.3 µM

COC(=O)C1CCc2c(OC)ccc(OC)c2C1=O (configuration not stated)
inactive: DLD-1 > 100 µM | DMS-114 > 100 µM | HOP-18 > 100 µM | KM-20L2 > 100 µM | M19-MEL > 100 µM | SNB-78 > 100 µM

Cc1cc(-c2c(Br)cc(C(=O)O)n2C)on1
inactive: BT-549 > 100 µM

CC(=O)Oc1c(C)c2c(c3ncccc13)OC(C)C2 (configuration not stated)
inactive: BT-549 21.1 µM

CN1C(=O)C(O)CC1c1cccc(F)c1 (configuration not stated)
inactive: BT-549 > 100 µM

[N-]=[N+]=Nc1c(Br)c(=O)[nH]c(=O)n1COCCO
inactive: DLD-1 > 100 µM | DMS-114 > 100 µM | HOP-18 > 100 µM | M19-MEL > 100 µM | RXF 631 > 100 µM | SNB-78 > 100 µM | XF498 > 100 µM

CC1=C(C(=O)OC2CC3CCC2(C)C3(C)C)C2Nc3ccccc3N(C)C2O1 (configuration not stated)
inactive: BT-549 2.34 µM

O=C(Nc1ccccc1)c1cc(S(=O)(=O)n2ccnc2O)c(S)cc1Cl
inactive: BT-549 > 100 µM

CCCCCCCCCCCCCCCCOc1ccc(/C=C/C2=[N+](CCCl)CCO2)cc1
inactive: BT-549 > 100 µM

Cc1oc(N)c(S(=O)(=O)c2ccc(Cl)cc2)c1C
inactive: BT-549 17.6 µM

CC1=NN(C(=O)c2ccc(Cl)cc2)C(=O)/C1=C/c1ccccc1O
inactive: DLD-1 > 100 µM | DMS-114 > 100 µM | KM-20L2 > 100 µM | M19-MEL > 100 µM | SNB-78 > 100 µM | XF498 > 100 µM

O=C(CCN1CCCCC1)Nc1ccc2sc3ccccc3c(=O)c2n1
inactive: BT-549 15.5 µM

CC(C)[C@H](NC(=O)[C@H](C(C)C)N(Cc1ccccc1)Cc1ccccc1)C(=O)N(C)[C@H](C(=O)N1CCC[C@H]1C(=O)N(C)[C@H](C)C(=O)NCc1ccc(Cl)cc1)C(C)C (Bn2Val-V[NMeV]P[dNMeA]-{NH(4-Cl-benzyl)})
inactive: BT-549 3.18 µM

CC(C)C(NC(=O)OC(C)(C)C)C(=O)N(C)C(Cc1ccccc1)C(=O)N(C)C(C(=O)N(C)C(C(=O)O)C(C)C)C(C)C (configuration not stated) (Boc-V[NMeF][NMeV][NMeV]-OH; configuration not given here)
inactive: DMS-114 > 100 µM | KM-20L2 > 100 µM | M19-MEL > 100 µM | XF498 > 100 µM

Nc1ccc(S(=O)(=O)Nc2cnc3c(Cl)cccc3n2)cc1 [CHLORSULFAQUINOXALINE]
inactive: BT-549 > 60.5 µM | DLD-1 93.1 µM | DMS-114 2.94 µM | HOP-18 189 µM | KM-20L2 292 µM | M19-MEL 232 µM | SNB-78 151 µM | XF498 275 µM
